Consider seven compounds from ChEMBL document CHEMBL4400572, “Small structural alterations greatly influence the membrane affinity of lipophilic ligands: Membrane interactions of bafilomycin A1 and its desmethyl derivative bearing 19F-labeling” (Bioorg Med Chem, 2019).

The nature of data set [1]: n-Octanol/water partition coefficient, log P of the compound by RP-HPLC analysis. It counts as physicochemical.
A short description of data set [2]: Permeability of the compound by PAMPA. In general terms: PAMPA measures passive passage across an artificial lipid membrane.
Data set [3] in a line: Permeability of the compound assessed as molar fraction in donor well at 0.5 mM measured after 16 hrs by PAMPA. It counts as ADME. The note with it: 500 µM.
Data set [4] is described as follows: Permeability of the compound assessed as molar fraction in donor well at 0.5 mM measured after 2 hrs by PAMPA. It counts as ADME. The note with it: 500 µM.
A short description of data set [5]: Permeability of the compound assessed as molar fraction in acceptor well at 0.5 mM measured after 16 hrs by PAMPA. It counts as ADME. The note with it: 500 µM.
Data set [6] is described as follows: Permeability of the compound assessed as molar fraction in acceptor well at 0.5 mM measured after 2 hrs by PAMPA. The note with it: 500 µM. The data set is classed as ADME.
Data set [7] in a line: n-Octanol/water partition coefficient, log P of the compound by UV-RP-HPLC analysis. It counts as physicochemical.
Data set [8] in a line: Permeability of the compound assessed as molar fraction in membrane at 0.5 mM measured after 2 hrs by PAMPA. The note with it: 500 µM. The data set is classed as ADME.
Data set [9] is described as follows: Permeability of the compound assessed as molar fraction in membrane at 0.5 mM measured after 16 hrs by PAMPA. The conditions noted are these: 500 µM. It counts as ADME.
Data set [10] in a line: Permeability of the compound assessed as molar fraction in donor well at 0.5 mM measured immediately by PAMPA. It counts as ADME. The note with it: 500 µM.
Data set [11] is described as follows: Permeability of the compound assessed as rate constant for partitioning to the membrane by PAMPA. It counts as ADME.
A short description of data set [12]: Permeability of the compound assessed as rate constant for coming off the membrane by PAMPA. It counts as ADME.
A short description of data set [13]: Permeability of the compound assessed as ratio of Kin to Kout by PAMPA. It counts as ADME.
The next data set relates to Lipid bilayer. Description: Binding affinity to POPC liposome membrane assessed as intrinsic dipolar splitting (D) at <1 mg by solid-state 19F NMR spectra analysis.

Each structure is given as a SMILES string.

As a reminder, the logP is the decadic logarithm of the partition coefficient of the neutral form, usually between octanol and water. The compound `OC/C=C/c1ccccc1` [CINNAMIC ALCOHOL] had a logP in data set [1] of 1.9.

Consider `Cc1c(Cl)cccc1Cl`, for which the logP in [1] turned out to be 4.29.

For orientation: Papp means the rate of passage across a membrane or cell layer, normalised by area and donor concentration. High values mean ready permeation, low ones poor permeation. `Cn1c(=O)c2[nH]cnc2n(C)c1=O.O` [THEOPHYLLINE] registered a Papp in data set [2] of 0.0848 ×10⁻⁶ cm/s.

In the case of `CO/C1=C\C(C)=C\C[C@@H](O)CC/C(C)=C/C=C/[C@H](OC)[C@@H]([C@@H](C)[C@@H](O)[C@H](C)[C@@]2(O)C[C@@H](O)[C@H](C)[C@@H](C(F)(F)F)O2)OC1=O`, the permeability was determined as 30.2% in [3]; 63.4% in [4]; 6.7% in [5]; 2.8% in data set [6]; 33.7% in data set [8]; 63.1% in [9]. Besides, the permeability in data set [10] worked out at 100%. In data set [7], this compound returned a logP of 2.81. For the same compound, the K in data set [11] amounted to 7.08 ×10⁻⁵ /s; in [12], 5.91 ×10⁻⁷ /s. Further, in data set [13], the Ratio was found to be 143. The D in the data set on Lipid bilayer was 2.4 kHz.

The compound `Cc1ccc(C(=O)c2ccc(C)cc2)cc1` yielded a logP in data set [7] of 3.84.

With `CO/C1=C\C(C)=C\[C@@H](C)[C@@H](O)[C@@H](C)C/C(C)=C/C=C/[C@H](OC)[C@@H]([C@@H](C)[C@@H](O)[C@H](C)[C@@]2(O)C[C@@H](O)[C@H](C)[C@@H](C(C)C)O2)OC1=O` [BAFILOMYCIN A1], the permeability in [3] is 11%; in data set [4], 27.4%; in [5], -1.5%; in [6] it was 4.8%; in data set [8] it was 67.9%; in [9] it was 90.5%. The permeability in [10] is 100%. For the same compound, the logP in [7] was 4.74. In addition, the K in data set [11] amounted to 20.7 ×10⁻⁵ /s; in data set [12] it was 3.25 ×10⁻⁷ /s. Moreover, the Ratio in data set [13] amounted to 1170.

For `CO/C1=C\C(C)=C\[C@@H](C)[C@@H](O)[C@@H](C)C/C(C)=C/C=C/[C@H](OC)[C@@H]([C@@H](C)[C@@H](O)[C@H](C)[C@@]2(O)C[C@@H](O)[C@H](C)[C@@H](C(F)(F)F)O2)OC1=O`, the permeability in data set [3] is listed as 16.6%; in [4] it was 52.2%; in [5], -0.2%; in [6], -0.5%; in [8] it was 48.3%; in data set [9], 83.7%. Also, the permeability in [10] is reported as 100%. In data set [7], this compound registered a logP of 4.54. Also, the K was determined as 9.55 ×10⁻⁵ /s in [11] and 2.47 ×10⁻⁷ /s in [12]. In addition, the Ratio in [13] was 393. The D in the data set on Lipid bilayer was 2.9 kHz.
